Results taken from ChEMBL document CHEMBL1158187, “Five novel mono-tetrahydrofuran ring acetogenins from the seeds of Annona muricata” (J Nat Prod, 1996).
In brackets after ≈: the same amount, converted by molar mass.

Tests used:
MCF7 = assay: Cytotoxicity against human MCF7 cells; assay type: functional, cell-based
A549 = assay: Cytotoxicity against human A549 cells; assay type: functional, cell-based
[1] = system: Agrobacterium tumefaciens; assay: Inhibition of growth of crown gall tumors in Agrobacterium tumefaciens with tumor-inducing plasmid on potato disk; assay type: functional
[2] = Toxicity in Artemia salina; assay type: organism-based; conditions: in vivo
HT-29 = assay: Cytotoxicity against human HT29 cells; assay type: functional, cell-based

Row | Compound | IC50 (MCF7) [µg/mL] | IC50 (A549) [µg/mL] | inhibition (INH) [1] [%] | LC50 [2] [µg/mL] | IC50 (HT-29) [µg/mL]
1 | CCCCCCCCCCCC[C@H](O)[C@@H]1CC[C@H]([C@H](O)CCCC[C@H](O)CCCCC[C@@H](O)CC2=C[C@H](C)OC2=O)O1 | 1.18 (≈ 1.98 µM) | 0.23 (≈ 0.385 µM) | 28 | 2.3 (≈ 3.85 µM) | –
2 | CCCCCCCCCCCC[C@@H](O)[C@H]1CC[C@H]([C@H]2CC[C@@H](CCCCCCC[C@@H](O)CC3=C[C@H](C)OC3=O)OCO2)O1 [JAVORICIN FORMAL] | 2.9 (≈ 4.76 µM) | 0.02 (≈ 0.0328 µM) | 31 | – | 5.6 (≈ 9.2 µM)
3 | CCCCCCCCCCCCCC[C@@H](O)[C@H]1CC[C@H]([C@H](O)CC[C@H](O)CCCCC[C@@H](O)CC2=C[C@H](C)OC2=O)O1 [GONIOTHALAMICIN] | 0.057 (≈ 0.0955 µM) | 0.008 (≈ 0.0134 µM) | – | 0.6 (≈ 1.01 µM) | 0.0011 (≈ 0.00184 µM)
4 | CCCCCCCCCCCC[C@@H](O)[C@H]1CC[C@H]([C@H]2CC[C@H](CCCCCCC[C@@H](O)CC3=C[C@H](C)OC3=O)OCO2)O1 [ARIANACIN FORMAL] | 8.5 (≈ 14 µM) | 0.02 (≈ 0.0328 µM) | 28 | – | 1 (≈ 1.64 µM)
5 | CCCCCCCCCCCCCC[C@H](O)[C@@H]1CC[C@H]([C@H](O)CC[C@H](O)CCCCC[C@@H](O)CC2=C[C@H](C)OC2=O)O1 | 1.05 (≈ 1.76 µM) | 0.13 (≈ 0.218 µM) | 47 | 5.2 (≈ 8.71 µM) | 0.0053 (≈ 0.00888 µM)
6 | CCCCCCCCCCCC[C@@H]1OCO[C@H](CCC[C@H](O)CCCCC[C@@H](O)CC2=C[C@H](C)OC2=O)[C@@H]2CC[C@@H]1O2 | 2.6 (≈ 4.37 µM) | 0.079 (≈ 0.133 µM) | 22 | – | 2.1 (≈ 3.53 µM)
7 | CCCCCCCCCCCCCC[C@@H](O)[C@H]1CC[C@H]([C@H]2CC[C@@H](CCCCC[C@@H](O)CC3=C[C@H](C)OC3=O)OCO2)O1 [GONIOTHALAMICIN FORMAL] | 1.03 (≈ 1.69 µM) | 0.025 (≈ 0.0411 µM) | – | – | 1.13 (≈ 1.86 µM)
8 | CCCCCCCCCCCCCC[C@H](O)[C@@H]1CC[C@H]([C@H]2CC[C@@H](CCCCC[C@@H](O)CC3=C[C@H](C)OC3=O)OCO2)O1 | 0.52 (≈ 0.854 µM) | 0.53 (≈ 0.87 µM) | 21 | – | 2.6 (≈ 4.27 µM)
9 | CCCCCCCCCCCC[C@@H](O)[C@H]1CC[C@H]([C@H](O)CC[C@H](O)CCCCCCC[C@@H](O)CC2=C[C@H](C)OC2=O)O1 [JAVORICIN] | 0.23 (≈ 0.385 µM) | 0.017 (≈ 0.0285 µM) | 47 | 4.9 (≈ 8.21 µM) | 1.8 (≈ 3.02 µM)
10 | COc1cccc2c1C(=O)c1c(O)c3c(c(O)c1C2=O)C[C@@](O)(C(=O)CO)C[C@@H]3O[C@H]1C[C@H](N)[C@H](O)[C@H](C)O1 [DOXORUBICIN] | – | 0.0004 (≈ 0.000736 µM) | – | – | 0.00051 (≈ 0.000938 µM)
11 | CCCCCCCCCCCC[C@@H](O)[C@H]1CC[C@H]([C@H](O)CC[C@@H](O)CCCCCCC[C@@H](O)CC2=C[C@H](C)OC2=O)O1 [ARIANACIN] | 0.4 (≈ 0.67 µM) | 0.0047 (≈ 0.00787 µM) | 26 | 7.1 (≈ 11.9 µM) | 4.4 (≈ 7.37 µM)
12 | CCCCCCCCCCCC[C@H](O)[C@@H]1CC[C@H]([C@H](O)CCCCC(=O)CCCCC[C@@H](O)CC2=C[C@H](C)OC2=O)O1 | 0.29 (≈ 0.487 µM) | 0.35 (≈ 0.588 µM) | 32 | 1.8 (≈ 3.03 µM) | 0.0009 (≈ 0.00151 µM)
